Measured values as given in publication PMC11391541, “Target-Directed Dynamic Combinatorial Chemistry Affords Binders of Mycobacterium tuberculosis IspE” (ACS Omega, 2024).
Converted amounts (≈) assume the structure as drawn. “And” between values parts separate entries of the source, which are not always exact repeats. Equal entries are not always repeated.

Experiments:
in vitro = conditions: human, HepG2 CC50, HepG2, 48 h, MTT
[1] = solubility in M. tuberculosis 7H9 growth medium; type: physicochemical; conditions: M. tuberculosis 7H9 growth medium, plasma or biological fluid, kinetic from dmso stock; Mtb 7H9 growth medium
Experimental: Prior to biological evaluation of the tdDCC hits, we tested their solubility in a standard buffer as well as in M. tuberculosis 7H9 growth medium. […] Regrettably, with 3.3 μM the least soluble compound is E1, making our most amplified and promising compound unsuitable for biological evaluation. We assessed the solubility in Mtb growth medium given that it is a complex, nutrient-rich environment with a distinct solubility profile. However, the trend continued, only seven hits are soluble at 8 μM or above, the remaining five compounds, including E1, were not eligible for antitubercular activity testing (Table 1).
Determination of in vitro anti-tubercular activity and solubility in 7H9 medium Anti-tubercular tests were performed as previously described .1 In brief, 7H9 complete medium (BD Difco; Becton Dickinson, Maryland,USA) supplemented with 10% OADC (BD), 0.2% glycerol, and 0.05% Tween80 as previously described ,3 was used to culture Mycobacterium tuberculosis (Mtb) strain H37Rv (ATCC 25618) carrying a mCherry -expressing plasmid (pCherry10 ).4 Cultures were harvested at mid-log phase and frozen in aliquots at – 80 °C. Prior to testing aliquots were thawed followed by centrifugation and the pellet was resuspended in 7H9 medium with 10% OADC (without glycerol and Tween80). This was further thoroughly resuspended by passing it through a syringe with a 26 -gauge needle to avoid clumping of the bacteria. 2×10^5 CFU (colony forming units) were then cultured in a total volume of 100 μl culture medium (triplicates) to test the non-precipitating compounds for the anti-tubercular activity at the concentrations indicated. For these assays, 96-well flat clear bottom black polystyrene microplates (Corning® CellBIND®, Merck, New York, USA) wer e used. Each plate had Rifampicin (at 1 μg/ml and 0.1 μg/ml) (National Reference Center, Borstel) as a reference compound. Plates were sealed with an air -permeable membrane (Porvair Sciences, Wrexham, UK) in a 37 °C incubator with mild agitation (TiMix5, Edmund Bühler, Germany). The activity of compounds was determined after 7 days by measuring the bacterial growth as relative light units (RLU) from the fluorescence intensity obtained at an excitation wavelength of 575 nm and an emission wavelength of 635 n m in a microplate reader (Synergy 2, BioTek Instruments, Vermont, USA). Two independent experiments (each in triplicates) were performed, and all values were normalized to untreated control sample (100%) in each experiment.
To obtain information regarding the toxicity of our compounds, their impact on the viability of human cells was investigated. HepG2 cells (2x10^4 cells per well) were seeded in 96 -well, flat-bottomed culture plates in 100 µL culture medium (DMEM containing 10% fetal calve serum, 1% penicillin -streptomycin). Twenty-four hours after seeding the cells, medium was removed and replaced by medium containing test compounds in a final DMSO concentration of 1%. Compounds were tested in duplicates at a single concentration or, for CC50 determination, at 8 concentrations that were prepared via 2 -fold serial dilutions in 1% DMSO/medium. Epirubicin and doxorubicin were used as positive controls in serial dilutions starting from 10 µM, and rifampicin was used as a negative control (at 100 µM). The living cell mass was determined 48 h after treatment with compounds by adding 0.1 volumes of 3 -(4,5-dimethylthiazol-2-yl)-2,5-diphenyltetrazolium bromide (MTT) solution (5 mg/mL sterile PBS) (Sigma, St. Louis, MO) to the wells. After incubating the cells for 30 min at 37 °C (atmosphere containing 5% CO2), medium was removed and MTT crystals were dissolved in 75 µL of a solution containing 10% SDS and 0.5% acetic acid in DMSO. The optical density (OD) of the samples was determined photometrically at 570 nm in a PHERAstar Omega plate reader (BMG labtech, Ortenberg, Germany). To obtain percent viability for each sample, their ODs were related to those of DMSO controls. […]

EcTolC = assay: microbe, parasite or virus in culture; type: cell-based; conditions: Escherichia coli, 18 h, LB medium, read-out: EcTolC %inh. At 50 μM
EcK12 = assay: E. coli growth inhibition, wild-type strain K12; type: cell-based, Escherichia coli; conditions: 18 h, LB medium; for inhibition at 50 µM: Escherichia coli, read-out: EcK12 %inh. At 50 μM
physchem = conditions: aqueous with cosolvent or surfactant or cyclodextrin, kinetic from dmso stock, solubility 5% DMSO in PBS
MtbIspE = MtbIspE (Mycobacterium tuberculosis, UniProt P9WKG7); assay: MtbIspE binding study via MicroScale Thermophoresis (MST); conditions: for MtbIspE binding at 20 μM: MST, 20 μM ligand, 200 nM MtbIspE, triplicate, qualitative
Chain of MtbIspE (P9WKG7 whole entry): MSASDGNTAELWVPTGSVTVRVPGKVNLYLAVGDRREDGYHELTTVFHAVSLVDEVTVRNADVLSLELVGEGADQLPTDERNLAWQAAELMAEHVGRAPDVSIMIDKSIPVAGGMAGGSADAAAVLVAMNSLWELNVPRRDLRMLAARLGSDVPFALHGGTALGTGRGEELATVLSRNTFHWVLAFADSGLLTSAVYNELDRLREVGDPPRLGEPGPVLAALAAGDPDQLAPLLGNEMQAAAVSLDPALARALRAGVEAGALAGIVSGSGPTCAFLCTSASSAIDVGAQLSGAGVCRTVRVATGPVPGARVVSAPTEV

MtbH37Rv = type: cell-based, Mycobacterium tuberculosis

| Compound | CC50 (in vitro) [µM] | solubility [1] [µM] | inhibition at 50 µM (EcTolC) [%] | inhibition at 50 µM (EcK12) [%] | solubility at 5 min (physchem) [µM] | MtbIspE binding at 20 μM (MtbIspE) | MtbH37Rv MIC90 (MtbH37Rv) | EcK12 %inh. At 50 μM (EcK12) | MtbIspE binding in saturation MST experiment (MtbIspE; saturation MST experiment) |
| --- | --- | --- | --- | --- | --- | --- | --- | --- | --- |
| COc1ccc(-c2cc(/C=N/NC(=O)c3cc(CC(C)C)n[nH]3)no2)cc1 [D6, (E)-3-Isobutyl-N′-((5-(4-methoxyphenyl)isoxazol-3-yl)methylene)-1H-pyrazole-5-carbohydrazide] | > 50 | 16 | 39 ± 6 | < 10 | 20 ± 10 (≈ 7.35 µg/mL) | No | no inh. at max. sol. | – | – |
| O=C(N/N=C/c1ccc(C(F)(F)F)cc1)c1cccc(Cl)c1 [K4, (E)-3-Chloro-N′-(4-(trifluoromethyl)benzylidene)benzohydrazide] | > 50 | 8 | 38 ± 4 | 12 ± 4 | 21 ± 6 (≈ 6.86 µg/mL) | binding in only one measurement and 1/3 | no inh. at max. sol. | – | – |
| O=C(N/N=C/c1cc(Cl)ccc1O)c1ccncc1 [L1, (E)-N′-(5-Chloro-2-hydroxybenzylidene)isonicotinohydrazide] | ~50 | 16 | 52 ± 3 | 18 ± 6 | 108 ± 3 (≈ 29.8 µg/mL) | did not bind and No | no inh. at max. sol. | appreciable effect | no binding |
